Ki data for two molecules are collected here from patent US8088780B2, “5,7-disubstituted thiazolo[4,5-D]pyrimidines for the selective inhibition of chemokine receptors” (AstraZeneca AB, priority 2005, dated 2012).

The target in test [1] is T1, CXCR2 (Homo sapiens, UniProt P25025).
T1 construct: kept under geneticin/G418 selection
T1 sequence (P25025 1-360): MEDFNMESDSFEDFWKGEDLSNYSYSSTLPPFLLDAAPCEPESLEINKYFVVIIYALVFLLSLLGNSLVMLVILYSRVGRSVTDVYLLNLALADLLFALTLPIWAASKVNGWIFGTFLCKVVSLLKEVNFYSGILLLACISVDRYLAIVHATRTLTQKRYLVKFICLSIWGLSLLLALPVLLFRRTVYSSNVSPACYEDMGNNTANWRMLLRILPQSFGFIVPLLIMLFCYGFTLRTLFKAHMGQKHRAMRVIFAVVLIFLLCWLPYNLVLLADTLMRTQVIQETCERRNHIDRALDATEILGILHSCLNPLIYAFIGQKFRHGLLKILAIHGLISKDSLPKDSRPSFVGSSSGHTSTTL
The test can be described thus: [125I]-hIL-8 competition binding (SPA) on membranes of cells expressing human CXCR2. Conditions: receptor binding, [125I]-hIL-8, human CXCR2 membranes.
Method: Cells expressing human CXCR2 obtained from AstraZeneca Charnwood are cultured in EMEM containing Glutamax and supplemented with 10% FBS (from PAA, Austria), 1% non-essential amino acids (NEAA), 100 U/mL penicillin and 100 μg/mL streptomycin (PEST) and 500 μg/mL geneticin/G418.
Cells are grown at 37° C. and 5% CO2 and harvested at 60-80% confluence in buffer containing 10 mM Tris-HCl pH 7.4, 5 mM EDTA, 0.1 mg/mL bacitracin. The cells are centrifuged at 300×g for 10 min and the pellet is resuspended in harvesting buffer (10 mM Tris-HCl, pH 7.4, 5 mM ethylenediaminetetra-acetic acid (EDTA) and 0.1 mg/mL bacitracin), pooled and homogenised using a Dounce homogeniser. The homogenate is centrifuged in 48000×g for 10 min and resuspended in harvesting buffer using Ultra-Turrax T8. Membrane aliquots are stored at −80° C.
The non-specific binding is determined in the presence of 500 nM unlabelled hIL-8. The agonist hIL-8 (a concentration-response curve from 3 pM to 30 nM), is used as reference compound at each test occasion. […] The binding reaction is started by addition of 140 μL membrane-SPA preparation, and the samples are incubated in dark at RT for 4 h.

The target in test [2] is T2, CX3CR1 (Homo sapiens, UniProt P49238).
T2 construct: expressed in transfected cells
T2 sequence (P49238 1-355): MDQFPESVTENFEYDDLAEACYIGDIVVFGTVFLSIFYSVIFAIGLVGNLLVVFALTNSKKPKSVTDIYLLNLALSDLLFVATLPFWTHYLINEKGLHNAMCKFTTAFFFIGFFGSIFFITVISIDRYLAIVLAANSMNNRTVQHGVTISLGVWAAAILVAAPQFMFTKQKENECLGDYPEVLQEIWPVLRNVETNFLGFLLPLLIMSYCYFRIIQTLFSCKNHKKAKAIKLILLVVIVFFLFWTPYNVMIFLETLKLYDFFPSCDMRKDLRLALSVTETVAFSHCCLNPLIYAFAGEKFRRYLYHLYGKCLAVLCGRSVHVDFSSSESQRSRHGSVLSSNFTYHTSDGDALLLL
Kind of test: [125I]-fractalkine competition receptor binding assay on membranes of cells expressing hCX3CR1. As to conditions: HEKS 293 hCX3CR1 membranes.
Method: The complete human CX3CR1 cDNA (GenBank accession number U20350) was extracted from human brain mRNA (Superscript, Life Technologies) and ligated into pCR-Blunt II TOPO vector (InVitrogen). The insert corresponding hCX3CR1 was isolated and further subcloned into pcDNA3.1zeo. Plasmid DNA was prepared using Plasmid Midi Kit (Qiagen). […] A stable clone was generated utilizing zeocin (500 μg/mL) and hygromycin (100 μg/mL) selection. For further applications the cells were maintained in Dulbecco's modified Eagle's medium/Ham's nutrient mix F12 (DMEM/F12) containing pyridoxine and supplemented with 10% (v/v) fetal bovine serum, 2 mM L-glutamine, 100 U/ml penicillin and 100 mg/ml streptomycin, 250 μg/mL zeocin and 100 μg/mL hygromycin.
Cells are grown at 37° C. and 5% CO2 and harvested at 60-80% confluence in buffer containing 10 mM Tris-HCl pH 7.4, 5 mM EDTA, 0.1 mg/mL bacitracin. The cells are centrifuged at 300×g for 10 min and the pellet is resuspended in harvesting buffer (10 mM Tris-HCl, pH 7.4, 5 mM ethylenediaminetetra-acetic acid (EDTA) and 0.1 mg/mL bacitracin), pooled and homogenised using a Dounce homogeniser. […]
Ten concentrations (2 points/log unit) of the test compounds were pre-dissolved in DMSO and added to reach a final concentration of 1% (v/v) DMSO. […] Scintillation cocktail was added and radioactivity was determined in a Packard 2500TR liquid scintillation counter.

Consider `CCC(Sc1nc(N[C@@H](CO)CC(C)C)c2sc(=O)[nH]c2n1)c1ccccc1` (stereo partly shown), for which the Ki stood at 651 nM in test [1] and 5.8 nM in test [2].
`CC(C)C[C@H](CO)Nc1nc(SCc2ccccc2)nc2[nH]c(=O)sc12` [5-(benzylthio)-7-{[(1R)-1-(hydroxymethyl)-3-methylbutyl]amino}[1,3]thiazolo[4,5-d]pyrimidin-2(3H)-one]: the Ki in test [1] stood at 79 nM; in test [2] it was 54 nM.
